Experiments:
[1] = system: JEKO-1 cells; assay: Cell proliferation assay (MTS) in JEKO-1 cells; type: cell-based; conditions: Homo sapiens, 48 h
From the text: (§1) MTS testing kit was purchased from Promega. The DMEM, Fetal bovine serum and Penicillin-Streptomycin were purchased from Gibco. Dimethyl sulfoxide (DMSO) was purchased from Sigma.
(§2) To investigate whether a compound is able to inhibit the activity of CDK4/6 in cells, mechanism-based assays using BE2C (ATCC® number: CRL-2268) or JEKO-1 (ATCC® number: CRL-3006) cell were developed. In the assay, inhibition of CDK4/6 was detected by the inhibition of BE2C or JEKO-1 cell cells proliferation. BE2C or JEKO-1 cell cells were cultured in culture flasks to 40-80% confluence in DMEM plus 10% fetal bovine serum. Cells were collected and plated onto 96-well plates at desired cell density (BE2C: 3000 cells/well; JEKO-1: 30000 cells/well). Plates were incubated overnight at 37° C., with 5% CO2 to adhere. Compounds were added to the plates, the final compound concentrations were 10000, 3333, 1111, […], 123.5, 41.2, 13.7, 4.6 and 1.5 nM. Place plates at 37° C., with 5% CO2 for 48 h. After removing the medium, 20 μl MTS/100 μl medium mixture solution were added to each well and incubate the plates for exactly 2 hours. Stop the reaction by adding 25 μl 10% SDS per well. Measure absorbance at 490 nm and 650 nm (reference wavelength). IC50 was calculated using GraphPad Prism 5.0.
(§3) Select compounds prepared as described above were assayed according to the biological procedures described herein. “+++” stands for IC50 value between greater than about 10 nM to about 100 nM. “++” stands for IC50 value between greater than about 100 nM to about 1 μM. “+” stands for IC50 value greater than 1 μM.

[2] = system: COLO205 xenograft tumors; assay: Tumor growth inhibition in COLO205 xenograft tumors; type: in vivo, mice; conditions: for TGI %: TGI = (1−T/C)×100%
Description: COLO205 cells were cultured with RPMI-1640 medium containing 10% fetal bovine serum (FBS) at 37° C. in 5% CO^2 incubator. Logarithmic growth phase cells were collected. COLO205 cells (5×10^6 in 200 μL PBS) were implanted subcutaneously into the left flank region, and tumor growth was monitored. Tumor volume (V) was estimated from the length (l) and width (w) of the tumor using the following formula: V=1/2×l×w^2. Treatment started when average tumor size was 100-200 mm^3.
The dosage and dosage regimen were as shown table 2. Tumor volumes and mice weight were measured 2 to 3 times every week.
Drug efficacy was assessed as Tumor Growth Inhibition (TGI) and T/C ratio. TGI was defined as (1−T/C)×100%, wherein T/C (%) presented the ratio of the change in mean tumor volume of the treated group and of the control group.

[3] = Pharmacokinetic properties in dogs; type: in vivo; conditions: dog, po; male Beagle dogs, 3 mg/kg p.o., plasma
Description: Each test compounds was suspended in 0.5% methylcellulose (400 cP, w/v) in water.
Grouping male Beagle dogs was administered with test compound at a dose of 3 mg/kg by oral. After administering, blood samples were collected at time points of 0.25, 0.50, 1.0, 2.0, 4.0, 8.0 and 24.0 h. Standard curve was plotted based on concentrations of the samples in a suitable range, and the concentration of test compounds in plasma samples were determined by using LC-MS/MS. Pharmacokinetic parameters were calculated according to drug concentration-time curve using a non-compartmental method by Phoenix WinNonLin 6.3 software.

[4] = system: BE2C cells; assay: Cell proliferation assay (MTS) in BE2C cells; type: cell-based; conditions: Homo sapiens, BE(2)-C, 48 h
From the text: as §1, §2, §3

Row | AUC(0-inf) [3] [ng·h/mL] | AUC(0-t) [3] [ng·h/mL] | Cmax [3] [ng/mL] | half-life [3] [h] | Structure (SMILES) | IC50 [1] [nM] | T/C % ([2]; 30 mg/kg PO QD × 14 days) [%] | TGI % ([2]; 30 mg/kg PO QD × 14 days) [%] | IC50 [4] [nM] | T/C % ([2]; 60 mg/kg PO QD × 14 days) [%] | TGI % ([2]; 60 mg/kg PO QD × 14 days) [%]
1 | – | – | – | – | CN(C)C(=O)c1sc2cnc(Nc3ccc(N4CCN(C5CCNCC5)CC4)cn3)nc2c1C1CCCC1 [Example 1, 7-cyclopentyl-N,N-dimethyl-2-((5-(4-(piperidin-4-yl)piperazin-1-yl)pyridin-2-yl)amino)thieno[3,2-d]pyrimidine-6-carboxamide] | 100 to 1000 | – | – | – | – | –
2 | 7010 | 2500 | 127 | 26 | CCN1CCC(N2CCN(c3ccc(Nc4ncc5sc(C(=O)N(C)C)c(C6CCCC6)c5n4)nc3)CC2)CC1 [Example 2, 7-cyclopentyl-2-((5-(4-(1-ethylpiperidin-4-yl)piperazin-1-yl)pyridin-2-yl)amino)-N,N-dimethylthieno[3,2-d]pyrimidine-6-carboxamide] | 100 to 1000 | 0.88 | 99.12 | 10 to 100 | – | –
3 | – | – | – | – | CN1CCC(N2CCN(c3ccc(Nc4ncc5sc(C(=O)N(C)C)c(C6CCCC6)c5n4)nc3)CC2)CC1 [Example 3, 7-cyclopentyl-N,N-dimethyl-2-((5-(4-(1-methylpiperidin-4-yl)piperazin-1-yl)pyridin-2-yl)amino)thieno[3,2-d]pyrimidine-6-carboxamide] | 100 to 1000 | – | – | 10 to 100 | – | –
4 | – | – | – | – | CN(C)C(=O)c1sc2cnc(Nc3ccc(N4CCC(N5CCNCC5)CC4)cn3)nc2c1C1CCCC1 [Example 4, 7-cyclopentyl-N,N-dimethyl-2-((5-(4-(piperazin-1-yl)piperidin-1-yl)pyridin-2-yl)amino)thieno[3,2-d]pyrimidine-6-carboxamide] | – | – | – | 100 to 1000 | – | –
5 | 7520 | 4660 | 312 | 16.1 | CN1CCN(C2CCN(c3ccc(Nc4ncc5sc(C(=O)N(C)C)c(C6CCCC6)c5n4)nc3)CC2)CC1 [Example 5, 7-cyclopentyl-N,N-dimethyl-2-((5-(4-(4-methylpiperazin-1-yl)piperidin-1-yl)pyridin-2-yl)amino)thieno[3,2-d]pyrimidine-6-carboxamide] | 10 to 100 | – | – | 10 to 100 | −2.31 | 102.31
6 | 7340 | 5030 | 404 | 13.2 | CCN1CCN(C2CCN(c3ccc(Nc4ncc5sc(C(=O)N(C)C)c(C6CCCC6)c5n4)nc3)CC2)CC1 [Example 6, 7-cyclopentyl-2-((5-(4-(4-ethylpiperazin-1-yl)piperidin-1-yl)pyridin-2-yl)amino)-N,N-dimethylthieno[3,2-d]pyrimidine-6-carboxamide] | 10 to 100 | – | – | 10 to 100 | −2.97 | 102.97
7 | – | – | – | – | CN(C)C(=O)c1sc2cnc(Nc3ccc(N4CCC(N5CCOCC5)CC4)cn3)nc2c1C1CCCC1 [Example 7, 7-cyclopentyl-N,N-dimethyl-2-((5-(4-morpholinopiperidin-1-yl)pyridin-2-yl)amino)thieno[3,2-d]pyrimidine-6-carboxamide] | – | – | – | 10 to 100 | – | –
8 | 103 | 83 | 36 | 5.36 | CN1CCN(c2ccc(Nc3ncc4sc(C(=O)N(C)C)c(C5CCCC5)c4n3)nc2)CC1 [Reference Compound 1, 7-cyclopentyl-N,N-dimethyl-2-(5-(4-methylpiperazin-1-yl)pyridin-2-ylamino)thieno[3,2-d]pyrimidine-6-carboxamide, reference compound] | – | – | – | – | – | –
9 | – | – | – | – | CN(C)C(=O)c1cc2cnc(Nc3ccc(N4CCNCC4)cn3)nc2n1C1CCCC1 [Ribociclib, reference compound] | – | – | – | – | 25.6 | 74.40
